Laboratory results reported in a melting point compilation (Tetko et al.; mined from patent text by program, amines drawn as free bases though some values may be those of a salt).

In the case of `Cc1c(NC(=O)CC(C)(C)C)cc2c(c1C)OC(C)(C)C2c1cccc(C(C)C)c1` (configuration not stated), the melting point is reported as 162 to 163 °C.
Work on `CCN(CCCN1C(=O)c2cc(OC)ccc2C(C)(C)C1=O)CCCN1C(=O)c2cc(OC)ccc2C(C)(C)C1=O` yielded a melting point of 141 to 143 °C.
For `Cc1c(C(=O)O)nc2c(=O)[nH]c3cc(S(C)(=O)=O)ccc3n12`, the melting point was 228 °C.
Work on `CCN(CC)C(=O)CCc1nc(-c2ccccc2)nc2c(C)cccc12` yielded a melting point of 80 °C.
Work on `CCCCc1ccc(-c2ncc(C#N)c(Cl)n2)cc1` yielded a melting point of 107 °C.
With `O=C(O)c1ccc([N+](=O)[O-])cc1NC(=O)C(F)(F)F` the melting point was 198 °C.
Work on `O=C(c1ccc(Cl)cc1)C(Cn1cncn1)n1cncn1` (configuration not stated) yielded a melting point of 204 °C.
With `CCCc1c(OCC(O)COc2ccc(CC(=O)O)cc2Br)ccc(C(C)=O)c1O` (configuration not stated) the melting point was 84 °C.
With `Cn1c(C(F)F)nn(-c2cc(O)c(Cl)cc2F)c1=O` the melting point was 153 to 155 °C.
Work on `Clc1ccccc1-c1nc(Cl)c2ccccc2n1` yielded a melting point of 127 to 129 °C.
With `Cc1cccc(-c2nc(CCOc3ccc(/C=C/CO)cc3)c(C)o2)c1` the melting point was 116 to 117 °C.
Molecule `OCc1ccc(OCc2csc(-c3ccccc3)n2)nc1` has a melting point of 134 to 135 °C.
Work on `COC(=O)[C@H]1CN(c2ccc3c(c2)sc(=O)n3C(C)C)C(=O)O1` yielded a melting point of 161 to 162 °C.
For `CN(C)CCOc1ccc2c(c1)[nH]c(=O)c1c3ccccc3oc21`, the melting point was 213 to 217 °C.
In the case of `O=c1[nH]c2sc(Br)c(Br)c2[nH]c1=O`, the melting point is reported as greater than 300 °C.
With `CCOC(=O)C(C(=O)OCC)(c1ccccc1)N1CCN(CCO)CC1` the melting point was 63 to 64 °C.
With `Cc1cccc(C(=O)NCc2cccc3c2C(=O)N(C2CCC(=O)NC2=O)C3=O)c1` (configuration not stated) the melting point was 218 to 220 °C.
Work on `N#CN=C(Nc1cccnc1)NC(NC(=O)c1ccc(Cl)cc1)C1CC1` (configuration not stated) yielded a melting point of 137 to 139 °C.
`CNCCc1ccc2[nH]nc(S(=O)(=O)c3ccccc3)c2c1` gave a melting point of 42 °C.
Work on `O=c1[nH]c2ccccc2c(=O)n1CCCCNCCCn1c(=O)[nH]c2ccccc2c1=O` yielded a melting point of 140 °C.
`O=C1CCC(=O)N1CC(=O)N1c2ccccc2N(Cc2ccccc2)C(=O)[C@H]2CCC[C@H]21` (relative stereo) gave a melting point of 212 to 213 °C.
Work on `CCCCNc1nc(C=O)c(C#N)cc1C(=O)OCC` yielded a melting point of 81 to 83 °C.
In the case of `O=C(O)CN(CC(=O)O)CC(=O)Nc1c(F)c(F)c(F)c(F)c1F`, the melting point is reported as 182 to 183 °C.
`CCOC(OCC)C1Cc2c(Br)ccc(OC)c2C1=O` (configuration not stated) showed a melting point of 76 to 78 °C.
Molecule `COc1cc([N+](=O)[O-])ccc1COP(N)(=O)N(CCCl)CCCl` (configuration not stated) has a melting point of 102 to 104 °C.
With `CCCCc1cn(CCCC)c(=O)n1Cc1ccc(-c2cnccc2-c2nnn[nH]2)cc1` the melting point was 128 to 130 °C.
For `CC(C)CNS(=O)(=O)c1cccc(NC(=O)c2cnn3c(C(F)(F)F)cc(-c4ccc(C(F)(F)F)cc4)nc23)c1`, the melting point was 205 °C.
`CN(CCCNc1ncc(Cc2ccc(Cl)c(Cl)c2)c(=O)[nH]1)c1ccccn1` gave a melting point of 86 to 92 °C.
`Nc1cc2[nH]c(=O)oc2cc1N` gave a melting point greater than 360 °C.
`CN(CC(=O)Nc1ccc(Cl)cc1)C(=O)OC(C)(C)C` showed a melting point of 126 to 128 °C.
`O=C1CCC(Nc2nccc(-n3ncc4ccccc43)n2)CC1` gave a melting point of 212 to 213 °C.
For `O=S(=O)(Nc1cccc(I)c1)C(F)(F)F`, the melting point was 75 to 77 °C.
In the case of `COC(=O)C(=C1SCCCN1C(=O)OC)[N+](=O)[O-]`, the melting point is reported as 71 to 72 °C.
In the case of `NCCc1ccc(-c2ccc(O)cc2)cc1`, the melting point is reported as greater than 350 °C.
Molecule `CC(=O)OCC(=O)COC(C)=O` has a melting point of 45.5 to 46.6 °C.
`CCOC(=O)c1c(Br)c2cc(OCc3ccccc3)ccc2n1C` showed a melting point of 125 to 127 °C.
In the case of `CCOC(=O)C(=O)Nc1cc(C#N)c(Cl)cc1[N+](=O)[O-]`, the melting point is reported as 80 to 82 °C.
`NC1=NS(=O)N=C1NCCCOc1cccc2c(=O)[nH]ccc12` (configuration not stated) gave a melting point of 235 °C.
`CC(=O)Oc1cc(C=CC(=O)c2ccccc2)cc([N+](=O)[O-])c1OC(C)=O` gave a melting point of 183 to 185 °C.
Work on `COc1cc(C#N)ccc1-c1nc2cc(Cl)c(Cl)cc2[nH]1` yielded a melting point greater than 250 °C.
`CCN(CC)c1ccc(C=C2CC(C)CC(=Cc3ccc(N(CC)CC)cc3)C2=O)cc1` (configuration not stated) showed a melting point of 169 °C.
With `C#CCN(c1ccc(C(=O)OC(C)(C)C)cc1)C1CCc2cc3nc(COC(=O)C(C)(C)C)[nH]c(=O)c3cc21` (racemic) the melting point was 134 °C.
`Cc1ccc(C(=O)Nc2cc(Cl)c(O)c(Cl)c2)c(O)c1` showed a melting point of 246 to 247 °C.
With `O=S1(=O)N2CN3CN1CP(C3)C2` the melting point was 274 to 275 °C.
`Cc1nc(CO)n(Cc2ccccc2)c1C` gave a melting point of 156 to 158 °C.
`COC(=O)CCON1C(C)(C)CC(OC(=O)c2ccccc2C(=O)OC2CC(C)(C)N(OCCC(=O)OC)C(C)(C)C2)CC1(C)C` gave a melting point of 117 to 118 °C.
In the case of `COc1ccc2c(c1)c(-c1cc3nccnc3[nH]1)cn2CCCN`, the melting point is reported as 95 to 100 °C.
`CC(=O)Nc1ccc(C(=O)N2CC3CNCC(C3)C2)cc1` gave a melting point of 186 to 189 °C.
With `CCOC(=O)C(C)C(NC(C)=O)C(C(C)=O)C(=O)Nc1ccc(Cl)cc1` (configuration not stated) the melting point was 169 to 173 °C.
For `COc1ccc2c(c1)NC1(CCN(C(C)=O)CC1)c1cccn1-2`, the melting point was 211 to 213 °C.
Work on `COc1ccc(C2(CC(=O)O)CNC(=O)C2)cc1` (configuration not stated) yielded a melting point of 172 to 175 °C.
Work on `Cc1ccccc1-c1ccc(O)c(C(=O)O)c1` yielded a melting point of 151 °C.
